In ChEMBL document CHEMBL1201862, “PubChem BioAssay data set” (2004):
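All cell lines were grown in 96-well plates and treated with compound for 48 hours. Here, GI50 denotes the concentration required for 50% inhibition of growth.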 Calls of active or inactive are those of the source. No stated cut-off is given here; in the data, active = GI50 up to about 1.1 µM and inactive = higher.

What was measured:
Assay in all cases: NCI-60 cell line screen, 48 h
[1] = tested on: 786-0
[2] = tested on: A498
[3] = tested on: COLO 205
[4] = tested on: HCT-116
[5] = tested on: HCT-15
[6] = tested on: HOP-62
[7] = tested on: HT-29
[8] = tested on: Hs-578T
[9] = tested on: MOLT-4
[10] = tested on: Malme-3M
[11] = tested on: NCI-H226
[12] = tested on: NCI/ADR-RES
[13] = tested on: OVCAR-8
[14] = tested on: SF-268
[15] = tested on: SF-539
[16] = tested on: SK-MEL-28
[17] = tested on: SK-MEL-2
[18] = tested on: SW-620
[19] = tested on: HOP-92
[20] = tested on: OVCAR-4

| Compound | GI50 [1] | GI50 [2] | GI50 [3] | GI50 [4] | GI50 [5] | GI50 [6] | GI50 [7] | GI50 [8] | GI50 [9] | GI50 [10] | GI50 [11] | GI50 [12] | GI50 [13] | GI50 [14] | GI50 [15] | GI50 [16] | GI50 [17] | GI50 [18] | GI50 [19] | GI50 [20] |
| --- | --- | --- | --- | --- | --- | --- | --- | --- | --- | --- | --- | --- | --- | --- | --- | --- | --- | --- | --- | --- |
| OCC(Cn1cncn1)(c1ccc(F)cc1F)n1cncn1 (stereo not drawn) | 66.1 µM (inactive) | 38.5 µM (inactive) | > 100 µM (inactive) | > 100 µM (inactive) | > 100 µM | > 100 µM (inactive) | > 100 µM (inactive) | > 100 µM (inactive) | > 100 µM (inactive) | > 100 µM (inactive) | > 100 µM (inactive) | > 100 µM (inactive) | > 100 µM (inactive) | > 100 µM (inactive) | > 100 µM (inactive) | > 100 µM (inactive) | > 100 µM (inactive) | > 100 µM (inactive) | – | – |
| Nc1ccn(C2OC(CO)C(O)C2(F)F)c(=O)n1 (stereo not drawn) | 0.055 µM (active) | 0.186 µM (active) | 0.82 µM (active) | 0.0579 µM (active) | 0.735 µM | 0.0867 µM (active) | 0.492 µM (active) | – | 0.091 µM (active) | 0.63 µM (active) | 0.706 µM (active) | 0.0755 µM (active) | 0.051 µM (active) | 0.226 µM (active) | 0.109 µM (active) | – | – | 0.759 µM (active) | 0.462 µM (active) | – |
| Cc1cn(C(C)OCCN2C(=O)c3ccccc3C2=O)c(=O)[nH]c1=O (stereo not drawn) | > 100 µM (inactive) | > 100 µM (inactive) | > 100 µM (inactive) | > 100 µM (inactive) | > 100 µM | > 100 µM (inactive) | > 100 µM (inactive) | – | > 100 µM (inactive) | – | > 100 µM (inactive) | > 100 µM (inactive) | > 100 µM (inactive) | – | > 100 µM (inactive) | > 100 µM (inactive) | > 100 µM (inactive) | > 100 µM (inactive) | > 100 µM (inactive) | > 100 µM (inactive) |
| Cn1c(=O)sc2cc(C(=S)N3CCN(c4ccccc4)CC3)ccc21 | 44 µM (inactive) | > 100 µM (inactive) | > 100 µM (inactive) | 85.5 µM (inactive) | 39.4 µM | 18.5 µM (inactive) | > 100 µM (inactive) | 55.8 µM (inactive) | > 100 µM (inactive) | 42.3 µM (inactive) | 55.3 µM (inactive) | 50 µM (inactive) | 38.4 µM (inactive) | 29.9 µM (inactive) | 24.4 µM (inactive) | 97.1 µM (inactive) | 56 µM (inactive) | > 100 µM (inactive) | – | – |
| CN1CC2=C(N=C(S)NC2c2ccccc2)/C(=C/c2ccccc2)C1 (stereo not drawn) | > 100 µM (inactive) | 89.7 µM (inactive) | 34.8 µM (inactive) | 13 µM (inactive) | 33 µM | > 100 µM (inactive) | 27 µM (inactive) | 40.6 µM (inactive) | 13 µM (inactive) | 30.1 µM (inactive) | > 100 µM (inactive) | > 100 µM (inactive) | > 10 µM (inactive) | > 100 µM (inactive) | 83.9 µM (inactive) | 27.6 µM (inactive) | 45.9 µM (inactive) | 71.1 µM (inactive) | – | – |
| CC(C)(C)c1ccc(NS(=O)(=O)c2ccc(N)cc2)cc1 | 23 µM (inactive) | 20.1 µM (inactive) | 16.1 µM (inactive) | 18 µM (inactive) | 30.3 µM | 0.634 µM (active) | 19 µM (inactive) | 27.4 µM (inactive) | 14.5 µM (inactive) | 19.5 µM (inactive) | 22.2 µM (inactive) | 25.4 µM (inactive) | 27.5 µM (inactive) | 26.9 µM (inactive) | 25.8 µM (inactive) | 27.2 µM (inactive) | 19.5 µM (inactive) | 26.9 µM (inactive) | – | 35.8 µM (inactive) |
| CC(=O)OCCCOCn1c(Cc2ccccc2)c(C)c(=O)[nH]c1=O | > 100 µM (inactive) | > 100 µM (inactive) | > 100 µM (inactive) | > 100 µM (inactive) | > 100 µM | > 100 µM (inactive) | > 100 µM (inactive) | > 100 µM (inactive) | > 100 µM (inactive) | > 100 µM (inactive) | > 100 µM (inactive) | – | > 100 µM (inactive) | > 100 µM (inactive) | > 100 µM (inactive) | > 100 µM (inactive) | > 100 µM (inactive) | > 100 µM (inactive) | > 100 µM (inactive) | > 100 µM (inactive) |
| Oc1c(OCc2nnc(CCCCCCCCc3nnc(COc4ccc5ccccc5c4O)o3)o2)ccc2ccccc12 | 16.6 µM (inactive) | > 100 µM (inactive) | > 100 µM (inactive) | 0.47 µM (active) | > 100 µM | – | > 100 µM (inactive) | – | 19.7 µM (inactive) | > 100 µM (inactive) | > 100 µM (inactive) | 64 µM (inactive) | – | 85.5 µM (inactive) | – | > 100 µM (inactive) | > 100 µM (inactive) | > 100 µM (inactive) | 43 µM (inactive) | > 100 µM (inactive) |
| O=C1COc2cc(N3CCN(c4cccc(C(F)(F)F)c4)CC3)ccc2N1 | > 100 µM (inactive) | – | > 100 µM (inactive) | > 100 µM (inactive) | > 100 µM | > 100 µM (inactive) | > 100 µM (inactive) | > 100 µM (inactive) | > 100 µM (inactive) | – | > 100 µM (inactive) | > 100 µM (inactive) | > 100 µM (inactive) | > 100 µM (inactive) | > 100 µM (inactive) | > 100 µM (inactive) | > 100 µM (inactive) | > 100 µM (inactive) | > 100 µM (inactive) | > 100 µM (inactive) |
| c1cc2cc(Cc3ccc4[nH]ccc4c3)ccc2[nH]1 | 18.3 µM (inactive) | 16.6 µM (inactive) | 17.5 µM (inactive) | 17.6 µM (inactive) | 13.9 µM | 15.7 µM (inactive) | 16.8 µM (inactive) | 19.9 µM (inactive) | 10.7 µM (inactive) | 15.2 µM (inactive) | 15.9 µM (inactive) | – | – | 20.6 µM (inactive) | 16.5 µM (inactive) | 26.4 µM (inactive) | 22.4 µM (inactive) | 23.1 µM (inactive) | 15.2 µM (inactive) | 7.74 µM (inactive) |
| NC(Cc1c2ccccc2cc2ccccc12)C(=O)O (stereo not drawn) | > 100 µM (inactive) | – | 38.4 µM (inactive) | 83.9 µM (inactive) | 68.1 µM | 67.3 µM (inactive) | > 100 µM (inactive) | – | 37 µM (inactive) | 80.7 µM (inactive) | 22.5 µM (inactive) | > 100 µM (inactive) | 8.09 µM (inactive) | > 100 µM (inactive) | > 100 µM (inactive) | > 100 µM (inactive) | > 100 µM (inactive) | 70.5 µM (inactive) | 61.1 µM (inactive) | > 100 µM (inactive) |
| N/N=C1/C(=N/O)CCc2nonc21 | > 100 µM (inactive) | – | > 100 µM (inactive) | > 100 µM (inactive) | > 100 µM | > 100 µM (inactive) | > 100 µM (inactive) | > 100 µM (inactive) | > 100 µM (inactive) | > 100 µM (inactive) | 24.6 µM (inactive) | > 100 µM (inactive) | > 100 µM (inactive) | > 100 µM (inactive) | > 100 µM (inactive) | > 100 µM (inactive) | > 100 µM (inactive) | > 100 µM (inactive) | > 100 µM (inactive) | > 100 µM (inactive) |
| CC1(C)OC2COC3([C@@H]4OC(C)(C)O[C@@H]4CO)OC(C)(C)OC3C2O1 (stereo partly drawn) | > 100 µM (inactive) | > 100 µM (inactive) | > 100 µM (inactive) | > 100 µM (inactive) | > 100 µM | > 100 µM (inactive) | – | – | – | – | > 100 µM (inactive) | > 100 µM (inactive) | > 100 µM (inactive) | – | > 100 µM (inactive) | > 100 µM (inactive) | > 100 µM (inactive) | > 100 µM (inactive) | > 100 µM (inactive) | > 100 µM (inactive) |
| O/N=C1/CCCCC1NO (stereo not drawn) | > 100 µM (inactive) | – | > 100 µM (inactive) | > 100 µM (inactive) | > 100 µM | > 100 µM (inactive) | > 100 µM (inactive) | > 100 µM (inactive) | > 100 µM (inactive) | > 100 µM (inactive) | > 100 µM (inactive) | > 100 µM (inactive) | > 100 µM (inactive) | > 100 µM (inactive) | > 100 µM (inactive) | > 100 µM (inactive) | > 100 µM (inactive) | > 100 µM (inactive) | – | > 100 µM (inactive) |
| CC(=O)OC(COc1ccc2c(c1)[n+]([O-])nc(N)[n+]2[O-])CN1CCCCC1 (stereo not drawn) | 9.98 µM (inactive) | 4.36 µM (inactive) | 4.85 µM (inactive) | 10.3 µM (inactive) | 7.89 µM | – | 11.1 µM (inactive) | – | 2.49 µM (inactive) | 9.79 µM (inactive) | 15.3 µM (inactive) | 68.5 µM (inactive) | 13.8 µM (inactive) | > 10 µM (inactive) | 15.2 µM (inactive) | 24.5 µM (inactive) | 10.2 µM (inactive) | 17.1 µM (inactive) | 17.4 µM (inactive) | 30.7 µM (inactive) |
| O=[N+]([O-])c1ccccc1/C=N/C12CC3CC(CC(C3)C1)C2 | 52.4 µM (inactive) | > 100 µM (inactive) | > 100 µM (inactive) | 39.3 µM (inactive) | 42.1 µM | 99.5 µM (inactive) | 34.3 µM (inactive) | – | 34 µM (inactive) | 66.1 µM (inactive) | > 100 µM (inactive) | – | 75 µM (inactive) | > 100 µM (inactive) | 80.2 µM (inactive) | > 100 µM (inactive) | 65.8 µM (inactive) | 46.6 µM (inactive) | 72.8 µM (inactive) | 87.7 µM (inactive) |
